# Results published in the supplement of paper PMC11061612.
# Key:
# Experiment in all cases: combination Emax (second highest fraction inhibited in the dose matrix, 72 h); higher = more inhibition; extreme values may be limits of the assay
# [1] = tested on: SUP-B15 (B-Lymphoblastic Leukemia)
# Outline: (§1)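 Cell lines grown in DMEM/F12 or RPMI with 10% FBS were plated in 1536-well plates and held 24 hours at 37°C, 5% CO2 before 72 hours of exposure to two-drug dose matrices, with DMSO typically at 0.2%. CellTiter-Glo 2.0 luminescence gave viability, which was converted to inhibition. Vehicle wells were set to 0 and blank wells to 1. Combination Emax is the second-highest inhibition in the matrix, and Bliss excess is the observed combination effect minus the expected EA + EB − EA·EB, where EA and EB are the single-agent effects.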
# [2] = tested on: ESO51 (Esophageal Adenocarcinoma)
# Outline: as §1
# [3] = tested on: KU812 (Chronic Myelogenous Leukemia)
# Outline: as §1
# [4] = tested on: SNU-398 (Hepatocellular Carcinoma)
# Outline: as §1
# [5] = tested on: HCC1187 (Breast Carcinoma)
# Outline: as §1
# [6] = tested on: CHSA8926 (Chondrosarcoma)
# Outline: as §1
# [7] = tested on: NCI-H520 (Squamous Cell Lung Carcinoma)
# Outline: as §1
# [8] = tested on: IM-95 (Gastric Carcinoma)
# Outline: as §1
# [9] = tested on: RPMI-8226 (Plasma Cell Myeloma)
# Outline: as §1
# [10] = tested on: KY821 (Acute Myeloid Leukemia)
# Outline: as §1
# [11] = tested on: JHH-4 (Hepatocellular Carcinoma)
# Outline: as §1
# [12] = tested on: KYSE-270 (Esophageal Squamous Cell Carcinoma)
# Outline: as §1
# SJSA-1 (Osteosarcoma) = tested on: SJSA-1 (Osteosarcoma)
# Outline: as §1
# [13] = tested on: KP-3 (Pancreatic Carcinoma)
# Outline: as §1
# [14] = tested on: SK-GT-4 (Esophageal Adenocarcinoma)
# Outline: as §1
# [15] = tested on: H9 (T-Cell Non-Hodgkin's Lymphoma)
# Outline: as §1
# [16] = tested on: VMRC-RCZ (Kidney Carcinoma)
# Outline: as §1
# [17] = tested on: T-T (Esophageal Squamous Cell Carcinoma)
# Outline: as §1
# [18] = tested on: HCC1419 (Breast Carcinoma)
# Outline: as §1
# RD (Rhabdomyosarcoma) = tested on: RD (Rhabdomyosarcoma)
# Outline: as §1
SMILES,combination Emax [1],combination Emax [2],combination Emax [3],combination Emax [4],combination Emax [5],combination Emax [6],combination Emax [7],combination Emax [8],combination Emax [9],combination Emax [10],combination Emax [11],combination Emax [12],combination Emax (SJSA-1 (Osteosarcoma)),combination Emax [13],combination Emax [14],combination Emax [15],combination Emax [16],combination Emax [17],combination Emax [18],combination Emax (RD (Rhabdomyosarcoma))
"C=CCn1c(=O)c2cnc(Nc3ccc(N4CCN(C)CC4)cc3)nc2n1-c1cccc(C(C)(C)O)n1 [AZD1775] + C1CN(CCC1(C(=O)N[C@@H](CCO)C2=CC=C(C=C2)Cl)N)C3=NC=NC4=C3C=CN4 [Capivasertib] (first compound max 3 µM, partner max 3 µM)",0.954,0.814,0.912,0.786,0.936,0.578,0.795,0.655,0.822,0.994,0.439,0.85,0.634,0.28,0.596,0.95,0.359,0.618,0.282,0.797
"C=CCn1c(=O)c2cnc(Nc3ccc(N4CCN(C)CC4)cc3)nc2n1-c1cccc(C(C)(C)O)n1 [AZD1775] + O=C(c1cc(Cc2n[nH]c(=O)c3ccccc23)ccc1F)N1CCN(C(=O)C2CC2)CC1 [Olaparib] (first compound max 1 µM, partner max 10 µM)",0.973,0.455,0.816,0.5,0.423,0.455,0.833,0.447,0.502,1,0.307,0.7,0.253,0.28,0.363,0.868,0.339,0.455,0.118,0.461
"CCN(CCO)CCCOc1ccc2c(Nc3cc(CC(=O)Nc4cccc(F)c4)[nH]n3)ncnc2c1 [AZD2811] + C=CCn1c(=O)c2cnc(Nc3ccc(N4CCN(C)CC4)cc3)nc2n1-c1cccc(C(C)(C)O)n1 [AZD1775] (first compound max 1 µM, partner max 1 µM)",0.966,0.627,0.725,0.417,0.839,0.455,0.674,0.475,0.562,1,0.355,0.63,0.289,0.209,0.363,0.985,0.217,0.303,0.0861,0.347
"CCN(CCO)CCCOc1ccc2c(Nc3cc(CC(=O)Nc4cccc(F)c4)[nH]n3)ncnc2c1 [AZD2811] + C[C@@H]1COCCN1C2=NC(=NC(=C2)C3(CC3)[S@](=N)(=O)C)C4=C5C=CNC5=NC=C4 [AZD6738] (first compound max 1 µM, 7x7, partner max 10 µM)",0.914,0.751,0.799,0.485,0.846,0.332,0.663,0.312,0.967,0.968,0.0985,0.764,0.289,0.368,0.583,0.977,0.279,0.42,0.0919,0.252
"CCN(CCO)CCCOc1ccc2c(Nc3cc(CC(=O)Nc4cccc(F)c4)[nH]n3)ncnc2c1 [AZD2811] + O=C(c1cc(Cc2n[nH]c(=O)c3ccccc23)ccc1F)N1CCN(C(=O)C2CC2)CC1 [Olaparib] (first compound max 1 µM, 7x7, partner max 10 µM)",0.976,0.118,0.678,0.365,0.824,0.3,0.345,0.362,0.491,0.455,0.0395,0.322,0.17,0.144,0.223,0.71,0.195,0.212,0.115,0.19
"CN(CCO)CC[C@H](CSc1ccccc1)Nc1ccc(S(=O)(=O)NC(=O)c2ccc(N3CCC([C@@H](O)c4ccccc4-c4ccc(Cl)cc4)CC3)cc2)cc1S(=O)(=O)C(F)(F)F [AZD4320] + C1CN(CCC1(C(=O)N[C@@H](CCO)C2=CC=C(C=C2)Cl)N)C3=NC=NC4=C3C=CN4 [Capivasertib] (first compound max 1 µM, 7x7, partner max 3 µM)",1,0.0266,0.737,0.0802,0.146,0.579,0.593,0.658,0.925,1,0.0846,0.23,0.392,0.0865,0.443,0.986,0.37,0.199,0.879,0.575
